We go through four molecules from patent US20210032304A1, “FIBROBLAST GROWTH FACTOR ANALOGS AND USES THEREOF” (University of Florida Research Foundation, Inc., priority 2018, published 2021).

For test [1], the system named is radiation damage (sub-TBI) in Swiss male mice. Description: Sub-TBI irradiation model, survival and body weight over 30 days. Conditions: for dose needed to gain survival benefit: sub-TBI NIH Swiss model. The test is classed as in vivo. As for the experimental part:
150 outbred stock (NIS) Swiss males (8-11 weeks) were subjected to 5 sub-TBI doses (0, 18, 19.5, 20.5, 21.5 Gy). Three single dosages of FGF-P were administered 24 hr post-IR (5.0, 10, and 20 mg/kg), and two single dosages of FGF-PT were administered 24 hr post-IR (10 and 20 mg/kg). One dosage of FGF2 (0.3 mg/kg) and a saline vehicle control was also administered. Animals were followed for signs of distress, survivors, and weight loss/gain for 30 days. Survivors at the end of 30 days were euthanized.
Radiation doses were chosen to bracket the highest dose with few or no deaths (LD20) and the lowest dose with few or no survivors (LD80), thus ensuring a range that includes the LD50 and statistically delivers the highest accuracy and precision per animal.

A further test concerns the target FGFR-2 alpha IIIc (Homo sapiens, UniProt P21802). Briefly: SPR (Horiba XelPlex), receptor immobilised, analyte in flow; given as 'associative binding constants'.
Test [2] concerns the target T1, FGFR-1 alpha IIIc (Homo sapiens, UniProt P11362). The test is described as above.
For test [3], the target named is T2, FGFR-1 alpha IIIb, P11362.
T2 chain: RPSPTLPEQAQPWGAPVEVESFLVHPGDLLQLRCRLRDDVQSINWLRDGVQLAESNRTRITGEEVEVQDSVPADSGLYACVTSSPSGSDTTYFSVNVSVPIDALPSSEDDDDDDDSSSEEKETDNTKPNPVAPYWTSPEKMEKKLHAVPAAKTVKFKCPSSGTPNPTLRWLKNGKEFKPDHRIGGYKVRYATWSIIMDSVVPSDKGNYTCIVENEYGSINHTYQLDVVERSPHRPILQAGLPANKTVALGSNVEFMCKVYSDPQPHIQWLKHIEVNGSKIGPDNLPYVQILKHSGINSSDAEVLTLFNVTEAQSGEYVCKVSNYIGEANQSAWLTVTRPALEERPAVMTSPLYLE
The description is as above.

Test [4] addresses T1, FGFR-1 alpha IIIc. Briefly: SPR (Horiba XelPlex), ratio to rhFGF2 on the same receptor.
Test [5] addresses T2, FGFR-1 alpha IIIb, P11362. The description is as above.
Where [6] appears, read: 18 Gy sub-TBI, single dose 24 hr post-IR, different doses, 30 days.
Where [7] appears, read: 19.5 Gy sub-TBI, all doses, single dose 24 hr post-IR.
The mark [8] stands for this setting: 20.5 Gy sub-TBI, many doses, particularly FGF-P 5-20 mg/kg.

Residues, ends and D or L forms follow the SMILES beside them.

Turning to `CC(C)C[C@@H]1NC(=O)[C@H](C)NC(=O)[C@H](C(C)C)NC(=O)[C@H](Cc2ccc(O)cc2)NC(=O)[C@H](Cc2c[nH]c3ccccc23)NC(=O)[C@H](CO)NC(=O)[C@H]([C@@H](C)O)NC(=O)[C@H](Cc2ccc(O)cc2)NC(=O)[C@H](CCCCN)NC(=O)[C@H](CCCNC(=N)N)NC(=O)[C@H](CO)NC(=O)[C@H](CCCNC(=N)N)NC(=O)[C@H](Cc2ccc(O)cc2)NC(=O)[C@@H](N)CSSC[C@@H](C(=O)O)NC(=O)[C@H](CCCNC(=N)N)NC(=O)[C@H](CCCCN)NC1=O` [FGF-PT] (HELM PEPTIDE1{C.Y.R.S.R.K.Y.T.S.W.Y.V.A.L.K.R.C}$PEPTIDE1,PEPTIDE1,1:R3-17:R3$$$V2.0; N-terminus and C-terminus assumed), the survival result in test [1] (setting [6]), in test [1] (setting [7]) and in test [1] (setting [8]) was “Improved survival” in each case. Further, the weight recovery result is recorded as “weight recovery” in test [1] (setting [6]); “weight recovery” in test [1] (19.5 Gy sub-TBI, different doses, recovery after severe weight loss); “weight recovery” in test [1] (20.5 Gy sub-TBI, different doses, recovery after very severe weight loss). Also, the “dose needed to gain survival benefit” value in test [1] is 10 mg/kg.
In general, Kd refers to the concentration at which binding is half-saturated. Higher therefore signals lower affinity. Turning to “recombinant human basic FGF (rhFGF2) (from UniProt P09038 143-288) (ligand)”, the dissociation constant (Kd) with FGFR-2 alpha IIIc is 1.7 nM; with FGFR-1 alpha IIIc [2], 0.83 nM.
Turning to rhFGF2: recombinant human basic FGF, the survival entry in test [1] (setting [7]) and in test [1] (setting [8]) was “Improved survival” throughout. In addition, the “dose needed to gain survival benefit” value in test [1] is 0.3 mg/kg.

B1: FGF-PT (peptide)
chain: YRSRKYTSWYVALKR
modifications: not checked
Consider B1, for which the Kd with FGFR-1 alpha IIIc [2] came out at 1000 nM; in test [3], 1500 nM. Besides, the fold of binding constant against rhFGF2 (in the test with FGFR-1 alpha IIIc [4]; in test [5]) was 1000 fold each time.
